Test results from patent US7169930B2, “Analogs of epothilone” (The Scripps Research Institute, priority 2002, dated 2007).

How the values were obtained:
[1] = biological target: taxoid binding site of microtubules; test: Fluorescent taxoid (Flutax-2) displacement assay; details: 37° C., read-out: equilibrium dissociation constant Kd
Experimental: In addition to the above biological assays, the relative potency of each epothilone analogue was measured by the fluorescent taxoid displacement assay (Andreu, J. M.; Barasoain, I. Biochemistry 2001, 40, 11975–11984). The purpose of these experiments was to compare the equilibrium constants with which microtubules bind at their taxane site the epothilone analogues investigated. The inhibition of the binding of the well-characterized fluorescent taxoid Flutax-2 (Souto, A. A.; et al. Angew. Chem. Int. Ed. Engl. 1995, 34, 2710–2712; Diaz, J. F.; et al. J. Biol. Chem. 2000, 275, 26265–26276; Abal, M.; et al. Cell. Motil. Cytoskeleton 2001, 49, 1–15) to microtubules by each of the epothilone analogues was measured at 37° C. (FIG. 2). […]
FIG. 2 illustrates a chart showing the displacement of the fluorescent taxoid Flutax-2 (50 nM) from microtubule binding sites (50 nM) by competing ligands at 37° C. […] Representative curves for selected epothilone analogues (3, 4, and 8) are presented in this figure to exemplify how the binding affinities were measured for each compound in Table 3.
FIG. 16 illustrates a table disclosing binding affinities of epothilone analogues to the taxoid binding site of microtubules. […] The binding constant of the reference ligand Flutax-2 was measured by centrifugation and fluorescence anisotropy, at each temperature (Diaz, J. F.; et al. J. Biol. Chem. 2000, 275, 26265–26276).

porcine tubulin = porcine tubulin (Sus scrofa, UniProt P02554); details: data from ref. 3; cited from earlier work
Chain of porcine tubulin (P02554 whole entry): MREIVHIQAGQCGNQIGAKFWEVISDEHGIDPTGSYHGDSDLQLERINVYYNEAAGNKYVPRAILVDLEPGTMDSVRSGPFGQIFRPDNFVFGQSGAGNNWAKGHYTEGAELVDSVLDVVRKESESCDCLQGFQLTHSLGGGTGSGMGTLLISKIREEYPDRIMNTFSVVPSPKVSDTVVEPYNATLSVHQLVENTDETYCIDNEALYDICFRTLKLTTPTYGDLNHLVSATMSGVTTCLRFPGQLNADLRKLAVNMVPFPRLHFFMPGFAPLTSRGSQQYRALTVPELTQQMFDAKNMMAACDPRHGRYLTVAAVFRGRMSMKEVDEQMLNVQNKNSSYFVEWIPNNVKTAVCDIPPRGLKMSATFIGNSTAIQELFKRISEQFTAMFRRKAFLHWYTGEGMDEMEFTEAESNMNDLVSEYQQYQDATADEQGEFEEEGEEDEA
Chain of porcine tubulin (P02550 whole entry partner): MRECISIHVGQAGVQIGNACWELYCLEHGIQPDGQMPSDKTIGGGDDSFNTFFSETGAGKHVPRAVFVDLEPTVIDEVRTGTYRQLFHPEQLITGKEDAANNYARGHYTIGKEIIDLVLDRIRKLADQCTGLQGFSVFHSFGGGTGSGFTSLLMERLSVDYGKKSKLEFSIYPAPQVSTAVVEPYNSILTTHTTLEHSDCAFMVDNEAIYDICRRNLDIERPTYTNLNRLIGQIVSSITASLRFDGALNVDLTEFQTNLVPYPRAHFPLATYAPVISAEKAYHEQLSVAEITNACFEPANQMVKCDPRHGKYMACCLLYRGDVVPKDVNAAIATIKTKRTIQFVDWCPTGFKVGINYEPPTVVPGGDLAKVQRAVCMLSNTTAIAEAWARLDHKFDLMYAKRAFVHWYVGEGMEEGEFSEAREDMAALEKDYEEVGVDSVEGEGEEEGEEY

[2] = test system: 1A9 human ovarian carcinoma cells; test: Cytotoxicity, 72 h growth inhibition SRB (sulforhodamine-B) assay, parental cell line; format: cell-based
Experimental: The biological activities of the synthesized epothilones were evaluated through cytotoxicity, in vitro tubulin polymerization, and tubulin binding assays. Cytotoxicity was first evaluated in a set of ovarian carcinoma cell lines, including a parental cell line (IA9) and three drug-resistant cell lines, namely the paclitaxel-resistant strains (Giannakakou, P.; et al. J. Biol. Chem. 1997, 272, 17118–17125) IA9/PTX10 and IA9/PTX22 and the epothilone-resistant strain (Giannakakou, P.; et al. Proc. Natl. Acad. Sci. U.S.A. 2000, 97, 2904–2909) 1A9/A8. These resistant cell lines harbor distinct acquired β-tubulin mutations which affect drug-tubulin interaction and result in impaired taxane and epothilone-driven tubulin polymerization. The results of these biological investigations are summarized in Table 1 (Skehan, P.; et al. J. Natl. Cancer Inst. 1990, 82, 1107–1112). […]
(§1) The biological activities of the synthesized epothilones were evaluated through cell growth inhibition assays (cytotoxicity assays). Cytotoxicity was first evaluated in a set of ovarian carcinoma cell lines, including a parental cell line (IA9) and three drug-resistant cell lines, namely the paclitaxel-resistant cell lines IA9/PTX10 and IA9/PTX22 (Giannakakou, P.; et al. J. Biol. Chem. 1997, 272, 17118–17125.) and the epothilone-resistant cell line 1A9/A8 (Giannakakou, P.; et al. Proc. Natl. Acad. Sci. 2000, 97, 2904–2909.). […]

[3] = test system: KB-31 human epidermoid carcinoma cells; test: Cytotoxicity, 96 hour drug exposure, protein dye method, parent epidermoid line; format: cell-based; details: KB 3-1, KB-31 cells, 96 hour exposure
Experimental: (§2) The biological activities of the synthesized epothilones were evaluated through cytotoxicity, in vitro tubulin polymerization, and tubulin binding assays. Cytotoxicity was first evaluated in a set of ovarian carcinoma cell lines, including a parental cell line (IA9) and three drug-resistant cell lines, namely the paclitaxel-resistant strains (Giannakakou, P.; et al. J. Biol. Chem. 1997, 272, 17118–17125) IA9/PTX10 and IA9/PTX22 and the epothilone-resistant strain (Giannakakou, P.; et al. Proc. Natl. Acad. Sci. U.S.A. 2000, 97, 2904–2909) 1A9/A8. […]
as §1
(§3) FIG. 15 illustrates a table disclosing the tubulin polymerization potency and cytotoxicity of epothilones 1–8, 10–14, and paclitaxel against human epidermoid cancer cell lines. […] Relative resistance (RR) was calculated by dividing the IC50 value for the resistant cell line by that of the sensitive cell line. […]

KB-8511 cells [4] = details: previously shown, Tetrahedron 2002, 58, 6413; cited from earlier work
KB-8511 cells [5] = test: Cytotoxicity, 96 hour drug exposure, protein dye method, Pgp-overexpressing line; format: cell-based, human; details: versus KB-31; Table 2
Experimental: as §2, §1, §3

[6] = test system: 1A9 human ovarian carcinoma cells; details: previous data, Tetrahedron 2002, 58, 6413; cited from earlier work

## C/C(=C\c1csc(C)n1)[C@@H]1C[C@@H]2O[C@@H]2CCC[C@H](C)[C@H](O)[C@@H](C)C(=O)C(C)(C)[C@@H](O)CC(=O)O1 [Compound 1, epothilone A]
[1]
  Kd: 34 ± 4 nM
Porcine tubulin
  % TP (tubulin polymerization): 69%

## CC(=Cc1ccc(C)cn1)C1CC2CC2(C)CCCC(C)C(O)C(C)C(=O)C(C)(C)C(O)CC(=O)O1 (centres unmarked) [Compound 8]
[2]; Homo sapiens, 1A9 cells, 72 h SRB assay
  IC50: 1.7 nM
[3]
  IC50: 0.9 nM

## CC(=O)O[C@H]1C(=O)[C@@]2(C)[C@H]([C@H](OC(=O)c3ccccc3)[C@]3(O)C[C@H](OC(=O)[C@H](O)[C@@H](NC(=O)c4ccccc4)c4ccccc4)C(C)=C1C3(C)C)[C@]1(OC(C)=O)CO[C@@H]1C[C@@H]2O [paclitaxel]
KB-8511 cells [4]
  fold less active against KB-8511 cells compared to KB-31 cells: 214 fold
Porcine tubulin
  % TP (tubulin polymerization): 49%
KB-8511 cells [5]
  fold less active against KB-8511 cells: 214 fold

## C/C(=C\c1csc(C)n1)[C@@H]1C[C@@H]2O[C@]2(C)CCC[C@H](C)[C@H](O)[C@@H](C)C(=O)C(C)(C)[C@@H](O)CC(=O)O1 [Compound 2, epothilone B]
[2]; cis epoxide series, conclusion drawn collectively from all three assays
  fold more active than epothilone A (1): at least 10 fold
Porcine tubulin
  % TP (tubulin polymerization): 90%

## CSc1nc(/C=C(\C)[C@@H]2C[C@@H]3O[C@]3(C)CCC[C@H](C)[C@H](O)[C@@H](C)C(=O)C(C)(C)[C@@H](O)CC(=O)O2)cs1 [Compound 3, 2-(thiomethyl)thiazole epothilone B]
[6]
  fold more active than the parent epothilone B: about 2 fold
[1]
  Kd: 0.64 ± 0.24 nM
